# Test results from US6573247B1, “Anti-viral pyrimidine nucleoside analogues” (University College Cardiff Consultants Limited, priority 1997, dated 2003).
# Entries after “also recorded” stand apart in the source; their conditions may differ. Read-outs that look alike come from different tables or passages of the source.
# Tests used:
# [1] = system: varicella zoster virus (VZV) (strains OKa and YS); test: microbe, parasite or virus in culture; format: cell-based; conditions: for EC50: read-out: EC50/VZV/μM; for antiviral activity with respect to varicella zoster virus (in words): verbal assessment
# Description: VZV (strains OKa and YS) induced cytopathogenicity in human embryonic lung fibroblast (HEL) cells was measured 7 days post infection. EC50 was defined as the drug concentration (in μM) required to reduce virus-induced cytopathicity by 50%.
# The values of EC50 and CC50 were measured as above.
# [2] = system: human embryonic lung fibroblast (HEL) cells; test: CC50 in tissue culture assay; format: cell-based
# Description: (§1) Each of the products of Examples 1, 2, 3 and 4 was tested in vitro in tissue culture assays for potent antiviral action with respect to varicella zoster virus (VZV). Acyclovir was included in the test procedure as a control. VZV (strains OKa and YS) induced cytopathogenicity in human embryonic lung fibroblast (HEL) cells was measured 7 days post infection. EC50 was defined as the drug concentration (in μM) required to reduce virus-induced cytopathicity by 50%.
# (§2) Each of the products of Examples 7 and 8 was tested in vitro in tissue culture assays for potent antiviral action with respect to varicella zoster virus (VZV). Acyclovir was included in the test procedure as a control. EC50 and CC50 values were measured as described under examples 1 to 6 above. […]
# [3] = CC50 in tissue culture assay; format: cell-based, human; conditions: human
# Description: as §1, §2
# HSV-2 = conditions: cited from earlier work
# HSV-1 = conditions: cited from earlier work
# VZV = conditions: cited from earlier work
# CMV = conditions: cited from earlier work
# cytomegalovirus (CMV) = test: CMV induced cytopathogenicity in HEL cells (in vitro tissue culture assay); format: cell-based; conditions: for EC50: Table IV, CMV induced cytopathogenicity in HEL cells
# Description: The product of Example 8 was additionally tested in vitro in tissue culture assays for potent antiviral action with respect to cytomegalovirus (CMV). CMV induced cytopatho-genicity in human embryonic lung fibroblast (HEL) cells was measured post infection. EC50 and CC50 were defined as above for VZV. The equivalent data for the known CMV active agent dihydroxypropyl guanine (DHPG) is included in Table IV as a control.
# [4] = Table I, VZV strains OKa and YS, HEL cells, 7 days post infection, concentration reducing virus-induced cytopathicity by 50%
# [5] = Table II, X = O, R chain length series, concentration reducing virus-induced cytopathicity by 50%
# [6] = Table III, measured as under examples 1 to 6
compound,measurement,setting,value
"O=c1nc2oc(CCCCO)cc2cn1[C@H]1C[C@H](O)[C@@H](CO)O1 [Example 10, 3-(2′-Deoxy-β-D-ribofuranosyl)-6-(4-hydroxybutyl)-2,3-dihydrofuro[2,3-d]pyrimidin-2-one]",EC50,[1]; Table V,29 µM
same,antiviral activity with respect to varicella zoster virus (in words),[1],low activity
same,CC50,[2],> 200 µM
"CCCCCCCCc1cc2cn([C@H]3C[C@H](O)[C@@H](CO)O3)c(=O)nc2[nH]1 [Example 13, 3-(2′-Deoxy-β-D-ribofuranosyl)-6-octyl,3,7-dihydro-2H-pyrrolo[2,3-d]pyrimidin-2-one]",EC50,[1]; Table VII,0.15 µM
"O=c1nc2oc(CCCO)cc2cn1[C@H]1C[C@H](O)[C@@H](CO)O1 [Example 9, 3-(2′-Deoxy-β-D-ribofuranosyl)-6-(3-hydroxypropyl)-2,3-dihydrofuro[2,3-d]pyrimidin-2-one]",EC50,[1]; Table V,9.7 µM
same,antiviral activity with respect to varicella zoster virus (in words),[1],low activity
same,CC50,[2],> 200 µM
"CCCCCCCCc1cc2cn(C3CC(O)C(CO)O3)c(=O)nc2o1 [Example 3, 3-(2′-Deoxy-β-D-ribofuranosyl)-6-octyl-2,3-dihydrofuro[2,3-d]pyrimidin-2-one]",EC50,"[1]; Human alphaherpesvirus 3, HEL, 168 h",0.003 µM
same,EC50,"[1]; Human alphaherpesvirus 3, HEL",0.03 µM
same,antiviral activity with respect to varicella zoster virus (in words),[1],extremely potent antiviral activity; also recorded: antiviral activity comparable to acyclovir
same,CC50,[3],> 50000 nM
"CCCCCCCCCCCCc1cc2cn([C@H]3C[C@H](O)[C@@H](CO)O3)c(=O)nc2o1 [Example 1, 3-(2′-Deoxy-β-D-ribofuranosyl)-6-dodecyl-2,3dihydrofuro[2,3-d]pyrimidin-2-one]",EC50,[1]; [4],≤ 1.2 µM
same,EC50,[1]; [5],≤ 1.2 µM
same,antiviral activity with respect to varicella zoster virus (in words),[1],antiviral activity comparable to acyclovir
same,CC50,"[2]; Table I, read-out: CC50/μM",> 200 µM
"O=c1nc2oc(CCCCCCCCCO)cc2cn1[C@H]1C[C@H](O)[C@@H](CO)O1 [Example 7, 3-(2′-Deoxy-β-D-ribofuranosyl)-6-(9-hydroxynonyl)-2,3′-dihydrofuro[2,3-d]pyrimidin-2-one]",EC50,[1]; [6],0.4 µM
same,CC50,[2],> 200 µM
"CCCCCc1cc2cn([C@H]3C[C@H](O)[C@@H](CO)O3)c(=O)nc2o1 [Example 5, 3-(2′-Deoxy-β-D-ribofuranosyl)-6-pentyl-2,3-dihydrofuro[2,3-d]pyrimidin-2-one]",EC50,[1]; [5],3 µM
"CCCCCCCCCCc1cc2cn([C@H]3C[C@H](O)[C@@H](CO)O3)c(=O)nc2o1 [Example 2, 3-(2′-Deoxy-β-D-ribofuranosyl)-6-decyl-2,3-dihydrofuro[2,3-d]pyrimidin-2-one]",EC50,[1]; [4],0.005 µM
same,EC50,[1]; [5],0.005 µM
same,antiviral activity with respect to varicella zoster virus (in words),[1],extremely potent antiviral activity
same,CC50,[2],> 50 µM
O=c1nc2occc2cn1C1CC(O)C(CO)O1 (stereo not shown),activity in in vitro assay against HSV-2,HSV-2,inactive
same,activity in in vitro assay against HSV-1,HSV-1,inactive
same,activity in in vitro assay against VZV,VZV,inactive
same,activity in in vitro assay against CMV,CMV,inactive
"CCCCCCCc1cc2cn([C@H]3C[C@H](O)[C@@H](CO)O3)c(=O)nc2o1 [Example 6, 3-(2′-Deoxy-β-D-ribofuranosyl)-6-heptyl-2,3-dihydrofuro[2,3-d]pyrimidin-2-one]",EC50,[1]; [5],0.17 µM
"Nc1nc2c(ncn2COCCO)c(=O)[nH]1 [Acyclovir, reference compound]",CC50,[2]; human,> 100 µM
same,CC50,[3],> 100000 nM
"Nc1nc2c(ncn2COC(CO)CO)c(=O)[nH]1 [DHPG, dihydroxypropyl guanine, reference compound]",CC50,[2],> 200 µM
same,EC50,cytomegalovirus (CMV),3.1 µM
"CCCCCCc1cc2cn([C@H]3C[C@H](O)[C@@H](CO)O3)c(=O)nc2[nH]1 [Example 12, 3-(2′-Deoxy-β-D-ribofuranosyl)-6-hexyl,3,7-dihydro-2H-pyrrolo[2,3-d]pyrimidin-2-one]",EC50,[1]; Table VII,> 50 µM
"O=c1nc2oc(CCCCCCCCCCl)cc2cn1C1CC(O)C(CO)O1 (stereo not shown) [Example 8, 6-(9-chlorononyl)-3-(4-hydroxy-5-(hydroxymethyl)tetrahydro-2-furanyl)-2,3-dihydrofuro[2,3,-d]pyrimidin-2-one]",EC50,[1]; [6],0.006 µM
same,EC50,cytomegalovirus (CMV),7.2 µM
same,antiviral activity with respect to CMV (in words),cytomegalovirus (CMV); verbal assessment,comparable to DHPG
"CCCCCCCCCCCCc1cc2cn([C@H]3C[C@H](O)[C@@H](CO)O3)c(=O)nc2[nH]1 [Example 14, 3-(2′-Deoxy-β-D-ribofuranosyl)-6-dodecyl-3,7-dihydro-2H-pyrollo[2,3-d]pyrimidin-2-one]",EC50,[1]; Table VII,3.7 µM
same,CC50,[2],> 200 µM
"CCCCCCc1cc2cn([C@H]3C[C@H](O)[C@@H](CO)O3)c(=O)nc2o1 [Example 4, 3-(2′-Deoxy-β-D-ribofuranosyl)-6-hexyl-2,3-dihydrofuro[2,3-d]pyrimidin-2-one]",EC50,[1]; [4],1.3 µM
same,EC50,[1]; [5],1.3 µM
same,CC50,[2],> 200 µM
